Experimental data as given in US11098040B2, “Compounds and methods of use” (Ferro Therapeutics, Inc., priority 2018, dated 2021).

Experiments:
KP4 = assay: Cell viability assay (CellTiter Glo), pancreatic ductal adenocarcinoma KP4; format: cell-based, human; conditions: Homo sapiens, KP-4, 96 h, pancreatic cancer cell line KP4, 96 hours, CellTiter Glo; read-out: IC50 μM KP4
How it was run: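 Luminescent ATP readout (CellTiter Glo) after 96 h compound exposure, normalized to DMSO-treated cells as maximum. Compounds ran in duplicate, nine 3-fold steps from 30 μM down to 4.6 nM, final DMSO ≤0.25%; KP4 plated overnight at 1,000–10,000 cells/well. Outputs: IC50, relative IC50 or % top inhibition.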

[1] = Whole blood stability, mouse; format: in vitro ADME
Text: (§1) The results of the assay on stability in blood and IC50 values for pancreatic cancer cell line KP4 are given below in Table 24.

[2] = Whole blood stability, human; format: in vitro ADME
Text: as §1

## COC(=O)[C@H]1Cc2c([nH]c3ccccc23)[C@H](c2ccc(OC(C)=O)cc2)N1C(=O)CCl [Compound 12]
KP4
  IC50: 0.01 to 0.1 µM
[1]; 0 min
  Whole Blood Stability % Remaining at 37° C. Mouse: 100.0%
[1]; 30 min
  Whole Blood Stability % Remaining at 37° C. Mouse: 0.0%
[1]; 60 min
  Whole Blood Stability % Remaining at 37° C. Mouse: 0.0%
[2]; 0 min
  Whole Blood Stability % Remaining at 37° C. Human: 100.0%
[2]; 30 min
  Whole Blood Stability % Remaining at 37° C. Human: 0.0%
[2]; 60 min
  Whole Blood Stability % Remaining at 37° C. Human: 0.1%

## COC(=O)[C@H]1Cc2c([nH]c3ccccc23)[C@H](c2ccc(C(=O)OC(C)(C)C)cc2)N1C(=O)CCl [Compound 1]
KP4
  IC50: < 0.01 µM
[1]; 0 min
  Whole Blood Stability % Remaining at 37° C. Mouse: 100.0%
[1]; 30 min
  Whole Blood Stability % Remaining at 37° C. Mouse: 59.6%
[1]; 60 min
  Whole Blood Stability % Remaining at 37° C. Mouse: 46.6%
[2]; 0 min
  Whole Blood Stability % Remaining at 37° C. Human: 100.0%
[2]; 30 min
  Whole Blood Stability % Remaining at 37° C. Human: 60.5%
[2]; 60 min
  Whole Blood Stability % Remaining at 37° C. Human: 43.0%

## CNS(=O)(=O)c1ccc([C@H]2c3[nH]c4ccccc4c3C[C@H](C(=O)OC)N2C(=O)CCl)cc1 [Compound 22]
KP4
  IC50: < 0.01 µM
[1]; 0 min
  Whole Blood Stability % Remaining at 37° C. Mouse: 100.0%
[1]; 30 min
  Whole Blood Stability % Remaining at 37° C. Mouse: 47.4%
[1]; 60 min
  Whole Blood Stability % Remaining at 37° C. Mouse: 27.6%
[2]; 0 min
  Whole Blood Stability % Remaining at 37° C. Human: 100.0%
[2]; 30 min
  Whole Blood Stability % Remaining at 37° C. Human: 58.8%
[2]; 60 min
  Whole Blood Stability % Remaining at 37° C. Human: 24.9%

## CN(C)C(=O)[C@H]1Cc2c([nH]c3ccccc23)[C@@H](c2ccc([Si](C)(C)C)cc2)N1C(=O)CCl [Compound 67a]
KP4
  IC50: > 1 µM
[1]; 0 min
  Whole Blood Stability % Remaining at 37° C. Mouse: 100.0%
[1]; 30 min
  Whole Blood Stability % Remaining at 37° C. Mouse: 52.4%
[1]; 60 min
  Whole Blood Stability % Remaining at 37° C. Mouse: 18.2%
[2]; 0 min
  Whole Blood Stability % Remaining at 37° C. Human: 100.0%
[2]; 30 min
  Whole Blood Stability % Remaining at 37° C. Human: 35.5%
[2]; 60 min
  Whole Blood Stability % Remaining at 37° C. Human: 15.5%

## COC(=O)[C@H]1Cc2c([nH]c3ccccc23)[C@H](c2ccc(S(=O)(=O)N3CC(O)C3)cc2)N1C(=O)CCl [Compound 37]
KP4
  IC50: 0.01 to 0.1 µM
[1]; 0 min
  Whole Blood Stability % Remaining at 37° C. Mouse: 100.0%
[1]; 30 min
  Whole Blood Stability % Remaining at 37° C. Mouse: 25.4%
[1]; 60 min
  Whole Blood Stability % Remaining at 37° C. Mouse: 9.8%
[2]; 0 min
  Whole Blood Stability % Remaining at 37° C. Human: 100.0%
[2]; 30 min
  Whole Blood Stability % Remaining at 37° C. Human: 37.8%
[2]; 60 min
  Whole Blood Stability % Remaining at 37° C. Human: 17.9%

## COC(=O)[C@H]1Cc2c([nH]c3ccccc23)[C@H](c2ccc(C(=O)N3CCOCC3)cc2)N1C(=O)CCl [Compound 26]
KP4
  IC50: 0.01 to 0.1 µM
[1]; 0 min
  Whole Blood Stability % Remaining at 37° C. Mouse: 100.0%
[1]; 30 min
  Whole Blood Stability % Remaining at 37° C. Mouse: 67.7%
[1]; 60 min
  Whole Blood Stability % Remaining at 37° C. Mouse: 55.7%
[2]; 0 min
  Whole Blood Stability % Remaining at 37° C. Human: 100.0%
[2]; 30 min
  Whole Blood Stability % Remaining at 37° C. Human: 47.1%
[2]; 60 min
  Whole Blood Stability % Remaining at 37° C. Human: 22.9%

## CC[C@H]1Cc2c([nH]c3ccccc23)[C@@H](c2ccc(C(=O)OC)cc2)N1C(=O)CCl [Compound 99]
KP4
  IC50: > 1 µM
[1]; 0 min
  Whole Blood Stability % Remaining at 37° C. Mouse: 100.0%
[1]; 30 min
  Whole Blood Stability % Remaining at 37° C. Mouse: 4.0%
[1]; 60 min
  Whole Blood Stability % Remaining at 37° C. Mouse: 0.0%
[2]; 0 min
  Whole Blood Stability % Remaining at 37° C. Human: 100.0%
[2]; 30 min
  Whole Blood Stability % Remaining at 37° C. Human: 94.5%
[2]; 60 min
  Whole Blood Stability % Remaining at 37° C. Human: 67.9%

## COC(=O)[C@H]1Cc2c([nH]c3ccccc23)[C@H](c2ccc(C(=O)NCC3CC3)cc2)N1C(=O)CCl [Compound 81]
KP4
  IC50: < 0.01 µM
[1]; 0 min
  Whole Blood Stability % Remaining at 37° C. Mouse: 100.0%
[1]; 30 min
  Whole Blood Stability % Remaining at 37° C. Mouse: 64.2%
[1]; 60 min
  Whole Blood Stability % Remaining at 37° C. Mouse: 39.8%
[2]; 0 min
  Whole Blood Stability % Remaining at 37° C. Human: 100.0%
[2]; 30 min
  Whole Blood Stability % Remaining at 37° C. Human: 48.0%
[2]; 60 min
  Whole Blood Stability % Remaining at 37° C. Human: 40.6%

## CC(C)(C)OC(=O)c1ccc([C@H]2c3[nH]c4ccccc4c3C[C@H](CO)N2C(=O)CCl)cc1 [Example 63a]
KP4
  IC50: > 1 µM
[1]; 0 min
  Whole Blood Stability % Remaining at 37° C. Mouse: 100.0%
[1]; 30 min
  Whole Blood Stability % Remaining at 37° C. Mouse: 4.5%
[1]; 60 min
  Whole Blood Stability % Remaining at 37° C. Mouse: 0.0%
[2]; 0 min
  Whole Blood Stability % Remaining at 37° C. Human: 100.0%
[2]; 30 min
  Whole Blood Stability % Remaining at 37° C. Human: 35.0%
[2]; 60 min
  Whole Blood Stability % Remaining at 37° C. Human: 13.2%

## CC(C)(C)OC(=O)c1ccc([C@H]2c3[nH]c4ccccc4c3C[C@H](C(=O)OC(C)(C)C)N2C(=O)CCl)cc1 [Compound 19]
KP4
  IC50: < 0.01 µM
[1]; 0 min
  Whole Blood Stability % Remaining at 37° C. Mouse: 100.0%
[1]; 30 min
  Whole Blood Stability % Remaining at 37° C. Mouse: 44.5%
[1]; 60 min
  Whole Blood Stability % Remaining at 37° C. Mouse: 21.2%
[2]; 0 min
  Whole Blood Stability % Remaining at 37° C. Human: 100.0%
[2]; 30 min
  Whole Blood Stability % Remaining at 37° C. Human: 44.4%
[2]; 60 min
  Whole Blood Stability % Remaining at 37° C. Human: 35.6%

## CC(=O)Nc1ccc([C@H]2c3[nH]c4ccccc4c3C[C@H](C(=O)N(C)C)N2C(=O)CCl)cc1 [Compound 71]
KP4
  IC50: > 1 µM
[1]; 0 min
  Whole Blood Stability % Remaining at 37° C. Mouse: 100.0%
[1]; 30 min
  Whole Blood Stability % Remaining at 37° C. Mouse: 90.4%
[1]; 60 min
  Whole Blood Stability % Remaining at 37° C. Mouse: 75.5%
[2]; 0 min
  Whole Blood Stability % Remaining at 37° C. Human: 100.0%
[2]; 30 min
  Whole Blood Stability % Remaining at 37° C. Human: 80.4%
[2]; 60 min
  Whole Blood Stability % Remaining at 37° C. Human: 59.3%

## C[C@H]1Cc2c([nH]c3ccc(F)cc23)[C@H](c2ccc(N3CCOCC3)cc2)N1C(=O)CCl [Compound 114]
KP4
  IC50: < 0.01 µM
[1]; 0 min
  Whole Blood Stability % Remaining at 37° C. Mouse: 100.0%
[1]; 30 min
  Whole Blood Stability % Remaining at 37° C. Mouse: 59.3%
[1]; 60 min
  Whole Blood Stability % Remaining at 37° C. Mouse: 0.0%
[2]; 0 min
  Whole Blood Stability % Remaining at 37° C. Human: 100.0%
[2]; 30 min
  Whole Blood Stability % Remaining at 37° C. Human: 88.1%
[2]; 60 min
  Whole Blood Stability % Remaining at 37° C. Human: 50.8%

## COC(=O)c1cccc([C@H]2c3[nH]c4ccccc4c3C[C@H](C(=O)OC)N2C(=O)CCl)c1 [Compound 100]
KP4
  IC50: < 0.01 µM
[1]; 0 min
  Whole Blood Stability % Remaining at 37° C. Mouse: 100.0%
[1]; 30 min
  Whole Blood Stability % Remaining at 37° C. Mouse: 35.8%
[1]; 60 min
  Whole Blood Stability % Remaining at 37° C. Mouse: 10.8%
[2]; 0 min
  Whole Blood Stability % Remaining at 37° C. Human: 100.0%
[2]; 30 min
  Whole Blood Stability % Remaining at 37° C. Human: 60.9%
[2]; 60 min
  Whole Blood Stability % Remaining at 37° C. Human: 44.3%

## CC(C)N(C(=O)[C@H]1Cc2c([nH]c3ccccc23)[C@H](c2ccc(C(=O)N(C)C)cc2)N1C(=O)CCl)C(C)C [Compound 39]
KP4
  IC50: 0.1 to 0.5 µM
[1]; 0 min
  Whole Blood Stability % Remaining at 37° C. Mouse: 100.0%
[1]; 30 min
  Whole Blood Stability % Remaining at 37° C. Mouse: 73.2%
[1]; 60 min
  Whole Blood Stability % Remaining at 37° C. Mouse: 60.4%
[2]; 0 min
  Whole Blood Stability % Remaining at 37° C. Human: 100.0%
[2]; 30 min
  Whole Blood Stability % Remaining at 37° C. Human: 64.5%
[2]; 60 min
  Whole Blood Stability % Remaining at 37° C. Human: 50.4%
